Results from patent US6403626B1, “Benzimidazole derivatives” (Synaptic Pharmaceutical Corporation, priority 1994, dated 2002).
pEC50, pKi: −log10 of the molar value. Like-named read-outs stand apart in the source and are kept apart here.

Legend:
[1] = target: T1, α2C Human Adrenergic Receptor (Homo sapiens, UniProt P18825); experiment: Equilibrium competition binding, [3H] rauwolscine, membranes of transfected LM(tk-) cells
T1 sequence (P18825 1-462): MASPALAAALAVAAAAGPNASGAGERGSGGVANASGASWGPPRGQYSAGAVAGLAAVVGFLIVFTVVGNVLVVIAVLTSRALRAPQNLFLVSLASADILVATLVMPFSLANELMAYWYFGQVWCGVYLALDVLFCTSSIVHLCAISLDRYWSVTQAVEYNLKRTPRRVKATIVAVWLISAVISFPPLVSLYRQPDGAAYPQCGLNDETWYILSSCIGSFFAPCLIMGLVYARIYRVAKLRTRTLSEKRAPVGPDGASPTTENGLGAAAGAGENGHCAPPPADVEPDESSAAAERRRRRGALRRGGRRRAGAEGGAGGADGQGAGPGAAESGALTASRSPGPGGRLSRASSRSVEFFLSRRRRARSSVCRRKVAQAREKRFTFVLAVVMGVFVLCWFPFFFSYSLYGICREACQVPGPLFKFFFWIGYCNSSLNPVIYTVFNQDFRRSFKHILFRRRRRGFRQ

[2] = target: T2, α1C Human Adrenergic Receptor (Homo sapiens, UniProt P35348); experiment: Equilibrium competition binding, [3H] prazosin, membranes of transfected LM(tk-) cells; settings: for Ki: cloned human receptor, [3H] prazosin, read-out: pKi Alpha-1 C (converted)
T2 construct: expressed in transfected cells; host or cells: LM(tk-) cells
T2 sequence (P35348 1-466): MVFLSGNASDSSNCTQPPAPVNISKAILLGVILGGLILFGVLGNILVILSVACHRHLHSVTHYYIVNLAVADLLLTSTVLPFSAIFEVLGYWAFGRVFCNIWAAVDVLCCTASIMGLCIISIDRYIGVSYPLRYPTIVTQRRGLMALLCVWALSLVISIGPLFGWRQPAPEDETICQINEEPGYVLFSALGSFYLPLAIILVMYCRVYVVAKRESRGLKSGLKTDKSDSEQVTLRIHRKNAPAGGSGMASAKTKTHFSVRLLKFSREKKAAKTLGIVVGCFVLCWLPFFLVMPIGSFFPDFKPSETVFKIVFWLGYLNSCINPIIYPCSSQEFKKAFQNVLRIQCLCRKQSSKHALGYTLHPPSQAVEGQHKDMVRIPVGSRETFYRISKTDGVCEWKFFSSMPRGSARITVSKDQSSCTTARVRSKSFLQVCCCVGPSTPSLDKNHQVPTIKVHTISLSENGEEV
Experimental: (§1) Binding and functional assays were performed using stably transfected human alpha adrenergic receptors. Equilibrium competition binding assays were performed with membrane preparations from cultured LM(tk-) cells stably transfected with the cloned human adrenoceptor subtypes except for α2b, which was expressed in Y-1 cells, using [^3H] prazosin for α1 receptors and [^3H] rauwolscine for α2 receptors.
(§2) Transfected cells from culture flasks were scraped into 5 ml of 5 mM Tris-HCl, 5 mM EDTA, pH 7.5, and lysed by sonication. The cell lysates were centrifuged at 1000 rpm for 5 min at 4° C., and the supernatant was centrifuged at 30,000×g for 20 min at 4° C. The pellet was suspended in 50 mM Tris-HCl, 1 mM MgCl2, and 0.1% ascorbic acid at pH 7.5. Binding of α2 antagonist [^3H] rauwolscine ([…]) to membrane preparations of LM(tk-) cells was done in a final volume of 0.25 ml and incubated at 37° C. for 20 min. Nonspecific binding was determined in the presence of 10 μM phentolamine. The reaction was stopped by filtration through GF/B filters using a cell harvester.
The construct involved ligation three partial overlapping fragments: a 5′ 0.6 kb HincII genomic clone, a central 1.8 EcoRI hippocampal cDNA clone, and a 3′ 0.6 Kb PstI genomic clone. The hippocampal cDNA fragment overlaps with the 5′ and 3′ genomic clones so that the HincII and PstI sites at the 5 and 3′ ends of the cDNA clone, respectively, were utilized for ligation. This full-length clone was cloned into the KpnI site of the expression vector, using the 5′ and 3′ KpnI sites of the fragment, derived from vector (i.e., pBluescript) and 3′-untranslated sequences, respectively. Stable cell lines were selected as described above.

[3] = target: T3, α1A Human Adrenergic Receptor (Homo sapiens, UniProt P25100); experiment: as above
T3 construct: expressed in transfected cells; host or cells: LM(tk-) cells
T3 sequence (P25100 1-572): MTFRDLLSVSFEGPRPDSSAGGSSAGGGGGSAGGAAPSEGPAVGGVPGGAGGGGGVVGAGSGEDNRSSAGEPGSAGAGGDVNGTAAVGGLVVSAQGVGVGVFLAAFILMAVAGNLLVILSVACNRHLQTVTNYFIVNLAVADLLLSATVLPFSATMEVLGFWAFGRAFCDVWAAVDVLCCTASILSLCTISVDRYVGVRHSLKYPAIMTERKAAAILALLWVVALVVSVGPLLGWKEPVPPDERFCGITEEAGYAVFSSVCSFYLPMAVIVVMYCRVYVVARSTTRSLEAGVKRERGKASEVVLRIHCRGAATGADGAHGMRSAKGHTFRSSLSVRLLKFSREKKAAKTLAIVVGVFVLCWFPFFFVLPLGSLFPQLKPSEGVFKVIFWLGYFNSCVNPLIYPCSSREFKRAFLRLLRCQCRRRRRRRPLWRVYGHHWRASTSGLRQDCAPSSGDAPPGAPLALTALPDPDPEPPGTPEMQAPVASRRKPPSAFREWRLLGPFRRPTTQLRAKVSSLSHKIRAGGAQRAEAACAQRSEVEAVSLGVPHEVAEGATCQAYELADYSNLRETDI
Experimental: as §1, §2
(§3) Stable cell lines were selected as described above.

[4] = target: T4, α2B Human Adrenergic Receptor (Homo sapiens, UniProt P18089); experiment: Equilibrium competition binding, [3H] rauwolscine, membranes of transfected Y-1 cells; settings: for Ki: cloned human receptor, [3H] rauwolscine, read-out: pKi Alpha-2 B (converted)
T4 construct: expressed in transfected cells; host or cells: Y-1 cells
T4 sequence (P18089 1-450): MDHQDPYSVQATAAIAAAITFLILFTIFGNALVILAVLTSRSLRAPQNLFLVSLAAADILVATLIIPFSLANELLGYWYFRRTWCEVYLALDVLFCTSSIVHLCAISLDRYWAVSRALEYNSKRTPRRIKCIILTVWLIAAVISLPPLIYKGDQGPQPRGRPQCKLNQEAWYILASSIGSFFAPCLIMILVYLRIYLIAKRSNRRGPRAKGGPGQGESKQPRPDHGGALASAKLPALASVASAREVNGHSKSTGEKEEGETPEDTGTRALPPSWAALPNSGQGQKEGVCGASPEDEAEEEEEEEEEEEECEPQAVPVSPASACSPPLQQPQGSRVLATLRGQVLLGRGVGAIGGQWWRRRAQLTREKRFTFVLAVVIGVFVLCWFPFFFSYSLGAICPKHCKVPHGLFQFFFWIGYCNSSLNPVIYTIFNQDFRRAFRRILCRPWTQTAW
Experimental: as §1, §3, §2

[5] = target: T5, α1B Human Adrenergic Receptor (Homo sapiens, UniProt P35368); experiment: Equilibrium competition binding, [3H] prazosin, membranes of transfected LM(tk-) cells; settings: for Ki: cloned human receptor, [3H] prazosin, read-out: pKi Alpha-1 B (converted)
T5 construct: The entire coding region of α1B(1563 bp); expressed in transfected cells; host or cells: LM(tk-) cells
T5 sequence (P35368 1-520): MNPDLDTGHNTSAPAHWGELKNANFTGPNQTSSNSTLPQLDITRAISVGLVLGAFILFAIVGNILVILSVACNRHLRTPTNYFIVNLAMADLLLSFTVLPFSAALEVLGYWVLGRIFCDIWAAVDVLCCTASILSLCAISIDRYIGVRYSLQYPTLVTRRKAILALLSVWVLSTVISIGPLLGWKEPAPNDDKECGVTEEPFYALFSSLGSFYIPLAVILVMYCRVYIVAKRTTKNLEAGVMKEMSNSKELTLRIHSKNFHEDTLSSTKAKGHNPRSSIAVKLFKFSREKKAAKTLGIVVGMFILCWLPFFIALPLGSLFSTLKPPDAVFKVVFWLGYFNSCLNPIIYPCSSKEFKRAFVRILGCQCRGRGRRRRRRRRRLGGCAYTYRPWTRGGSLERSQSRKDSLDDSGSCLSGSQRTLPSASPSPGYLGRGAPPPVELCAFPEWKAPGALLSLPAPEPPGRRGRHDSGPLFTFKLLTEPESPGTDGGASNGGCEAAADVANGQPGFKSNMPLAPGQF
Experimental: as §1, §2
The construct involved ligating the full-length containing EcoRI brainstem cDNA fragment from ZapII into the expression vector. The stable cell lines were selected as described above.

[6] = target: T4, α2B Human Adrenergic Receptor; assay type: cell-based
Experimental: as §1, §3
(§4) The agonist activity (expressed as pEC50) was measured as a function of the ability to inhibit the forskolin-stimulated synthesis of cyclic adenosine monophosphate (cAMP). The stably transfected cells were incubated in Ham's F10 with 5 mM theophylline, 10 mM HEPES, 10 μM pargyline, and/or appropriate concentrations of forskolin for 20 min at 37° C. in 5% CO2. The tested compounds were then added to a final concentration of 0.001 nM to 1 μM and incubated for an additional 15 min at 37° C. in 5% CO2. The medium was aspirated and the reaction was stopped by the addition of 100 mM HCl . […] The plates are stored at 4° C. for 15 min and assayed to determine the linear concentration of cAMP. The appropriate dilution is interpolated from the standard curve of cold cAMP. The assessment of cAMP formation is determined by radioimmunoassay (cAMP radioimmunoassay kit; Advanced Magnetics, Cambridge, Mass.). Radioactivity was quantified using a Packard COBRA Auto Gamma counter, equipped with data reduction software.

[7] = target: T1, α2C Human Adrenergic Receptor; assay type: cell-based; set-up: The entire coding region of α2C (1383 bp), including 2 bp of 5′ UT and 400 bp of 3′ UT; expressed in transfected cells; host or cells: LM(tk-) cells; settings: for I.A Alpha-2 C: functional cAMP assay
Experimental: as §1
The insert housing this coding region was an @ 1.8 kb Ncol/EcoRI human spleen genomic fragment which was end-blunted by either T4 polymerase or Klenow fragment of DNA polymerase. Stable cell lines were selected as described above.
as §4

## CC(C)n1cnc2c(Br)c(NC3=NCCN3)ccc21 [Example 18, 1-Isopropyl-4-bromo-5-(2-imidazolin-2-ylamino)Benzimidazole]
[1]
  pKi: 6.55
[2]
  Ki: 891 nM
[3]
  pKi: 5.57
[4]
  pKi: 6.43
[5]
  Ki: 20000 nM

## Brc1c(NC2=NCCN2)ccc2ncn(C3CCCC3)c12 [Example 28, 3-Cyclopentyl-4-bromo-5-(2-imidazolin-2-ylamino)Benzimidazole]
[1]
  pKi: 7.02
[2]
  pKi: 5.42
[3]
  pKi: 6.18
[4]
  Ki: 41.7 nM
[5]
  pKi: 4.98

## CCCn1cnc2ccc(NC3=NCCN3)cc21 [Example 15, 3-Propyl-5-(2-imidazolin-2-ylamino)Benzimidazole]
[1]
  pKi: 6.06
[2]
  Ki: 4900 nM
[3]
  pKi: 5.19
[4]
  Ki: 724 nM
[5]
  Ki: 34700 nM

## Cc1cc(NC2=NCCN2)c(Br)c2[nH]cnc12 [Example 59, 4-Bromo-7-methyl-5-(2-imidazolin-2-ylamino)Benzimidazole]
[6]
  pEC50: 7.39
  I.A Alpha-2 B: 0.90
[1]
  pKi: 7.78
[7]
  pEC50: 8.89
  I.A Alpha-2 C: 1.00
other
  melting point: 242 to 244 °C
[4]
  pKi: 8.10

## CC(C)n1cnc2cc(NC3=NCCN3)ccc21 [Example 17, 1-Isopropyl-5-(2-imidazolin-2-ylamino)Benzimidazole]
[1]
  pKi: 6.08
[2]
  Ki: 9120 nM
[3]
  pKi: 4.98
[4]
  pKi: 6.18
[5]
  pKi: 4.35

## CC(C)n1cnc2ccc(NC3=NCCN3)cc21 [Example 20, 3-Isopropyl-5-(2-imidazolin-2-ylamino)Benzimidazole]
[1]
  pKi: 6.20
[2]
  Ki: 11200 nM
[3]
  pKi: 4.83
[4]
  Ki: 724 nM
[5]
  Ki: 58900 nM

## Cn1cnc2ccc(NC3=NCCN3)cc21 [Example 11, 3-Methyl-5-(2-imidazolin-2-ylamino)Benzimidazole]
[1]
  pKi: 5.95
[2]
  Ki: 5750 nM
[3]
  pKi: 5.00
[4]
  pKi: 6.65
[5]
  Ki: 35500 nM

## CC(C)n1cnc2ccc(NC3=NCCN3)c(Br)c21 [Example 21, 3-Isopropyl-4-bromo-5-(2-imidazolin-2-ylamino)Benzimidazole]
[2]
  Ki: 1200 nM
[3]
  pKi: 6.13
[4]
  Ki: 21.4 nM
[5]
  Ki: 4680 nM

## CC(C)Cn1cnc2ccc(NC3=NCCN3)c(Br)c21 [Example 24, 3-Isobutyl-4-bromo-5-(2-imidazolin-2-ylamino)Benzimidazole]
[2]
  Ki: 251 nM
[3]
  pKi: 6.51
[4]
  pKi: 7.89
[5]
  Ki: 4900 nM

## Brc1cc(NC2=NCCN2)c(Br)c2[nH]cnc12 [Example 58, 4,7-Dibromo-5-(2-imidazolin-2-ylamino)Benzimidazole]
[6]
  pEC50: 7.55
  I.A Alpha-2 B: 0.50
[1]
  pKi: 7.51
[7]
  pEC50: 8.49
  I.A Alpha-2 C: 1.00
other
  melting point: 320 to 321 °C
[4]
  pKi: 6.76

## CCCn1cnc2ccc(NC3=NCCN3)c(Br)c21 [Example 16, 3-Propyl-4-bromo-5-(2-imidazolin-2-ylamino)Benzimidazole]
[2]
  Ki: 417 nM
[3]
  pKi: 7.26
[4]
  Ki: 12.3 nM
[5]
  Ki: 513 nM
